Assay: xn = mol fraction of the nth substance listed
Conditions: 101 kPa, Liquid; for viscosity: Concentric cylinders viscometry; for mass density: Vibrating tube method

COC(C)(C)C [2-methoxy-2-methylpropane] + CCCO
Conditions	mass density, 293.15 K [kg/m3]	mass density, 298.15 K [kg/m3]	mass density, 303.15 K [kg/m3]	mass density, 308.15 K [kg/m3]	viscosity, 293.15 K [mPa·s]	viscosity, 298.15 K [mPa·s]	viscosity, 303.15 K [mPa·s]	viscosity, 308.15 K [mPa·s]
x1 = 0.0126	802.92	798.92	794.86	790.76	2.139	1.886	1.676	1.494
x1 = 0.0219	802.2	798.21	794.13	790.02	2.069	1.832	1.631	1.456
x1 = 0.0298	801.64	797.61	793.53	789.4	2.014	1.79	1.594	1.424
x1 = 0.0403	800.81	796.7	792.61	788.45	1.948	1.735	1.548	1.386
x1 = 0.05	800.12	796.03	791.93	787.77	1.885	1.683	1.502	1.347
x1 = 0.0599	799.4	795.34	791.21	787.04	1.835	1.635	1.462	1.309
x1 = 0.0699	798.72	794.62	790.47	786.28	1.78	1.589	1.429	1.276
x1 = 0.0798	798.25	794.12	789.92	785.72	1.736	1.552	1.391	1.252
x1 = 0.09	797.26	793.05	788.85	784.63	1.67	1.492	1.338	1.203
x1 = 0.1003	796.41	792.28	788.08	783.85	1.627	1.459	1.301	1.181
x1 = 0.1495	793.03	788.85	784.61	780.3	1.412	1.275	1.151	1.042
x1 = 0.1999	789.56	785.28	780.94	776.55	1.234	1.119	1.016	0.9225
x1 = 0.25	786.15	781.8	777.38	772.92	1.089	0.9917	0.9045	0.8231
x1 = 0.3003	782.74	778.33	773.84	769.32	0.9663	0.8841	0.809	0.7398
x1 = 0.35	779.47	774.99	770.45	765.85	0.8694	0.7946	0.7291	0.6694
x1 = 0.4015	776.15	771.6	766.99	762.32	0.7809	0.721	0.6608	0.6082
x1 = 0.4585	772.51	767.88	763.21	758.45	0.6993	0.6452	0.5966	0.5495
x1 = 0.5002	769.91	765.22	760.49	755.68	0.6508	0.6047	0.5568	0.5119
x1 = 0.5505	766.88	762.1	757.3	752.42	0.5953	0.5528	0.5121	0.4715
x1 = 0.5994	763.94	759.14	754.28	749.34	0.5508	0.52	0.4831	0.4457
x1 = 0.6475	761.06	756.21	751.27	746.28	0.5181	0.4813	0.4499	0.4153
x1 = 0.7026	757.85	752.93	747.92	742.86	0.4767	0.4449	0.4145	0.3818
x1 = 0.7536	754.92	749.92	744.86	739.74	0.4509	0.4165	0.3944	0.3602
x1 = 0.8033	752.01	747.01	741.89	736.72	0.4202	0.3922	0.3655	0.3345
x1 = 0.8471	749.51	744.41	739.24	734.04	0.4014	0.375	0.3506	0.3255
x1 = 0.9007	746.4	741.27	736.06	730.79	0.3802	0.3537	0.3303	0.308
x1 = 0.9107	745.77	740.64	735.41	730.13	0.3705	0.3499	0.3277	0.302
x1 = 0.9185	745.32	740.18	734.94	729.65	0.3679	0.3536	0.3317	0.3014
x1 = 0.9282	744.76	739.61	734.37	729.07	0.3645	0.3411	0.3205	0.2934
x1 = 0.94	744.07	738.91	733.65	728.34	0.3597	0.3383	0.3153	0.295
x1 = 0.9493	743.55	738.35	733.09	727.78	0.3573	0.3241	0.3106	0.2879
x1 = 0.9599	742.94	737.74	732.47	727.15	0.3554	0.3246	0.3102	0.2939
x1 = 0.9698	742.37	737.19	731.91	726.58	0.349	0.329	0.3092	0.2843
x1 = 0.9796	741.82	736.64	731.35	726.01	0.3454	0.3252	0.3054	0.2803
x1 = 0.9882	741.32	736.14	730.84	725.49	0.344	0.3242	0.3046	0.2819
